Measured values: patent US11406683B2, “Compounds and therapeutics uses thereof” (Centauri Therapeutics Limited (GB/GB), priority 2017, dated 2022)
Bridge positions count the residues as written; N and C are the ends. Square brackets hold non-standard residues; d marks the D form. Side chains are listed from the residue outwards. Peptide text beside a SMILES is read from it. * marks the point of attachment. X1 = C[C@@H]1OC(OCCCC(=O)NCCNC(=O)COc2cc(OCC(=O)NCCNC(=O)CCCOC3O[C@@H](C)C(O)C(O)[C@@H]3O)cc(-c3cc(OCC(=O)NCCNC(=O)CCCOC4O[C@@H](C)C(O)C(O)[C@@H]4O)cc(C(=O)*)c3)c2)[C@@H](O)C(O)C1O; X3 = C[C@@H]1OC(OCCCC(=O)NCCNC(=O)COc2ccc(-c3cccc(C(=O)*)c3)cc2)[C@@H](O)C(O)C1O; Gly(octyl) = CCCCCCCC[C@H](N)C(=O)O; Nonanoyl = CCCCCCCCC(=O)*; X2 = CC[C@H](C)CCCCC(=O)*; Dab = NCC[C@H](N)C(=O)O; Ahx = NCCCCCC(=O)O

Assays:
[1] = system: Pseudomonas Aeruginosa PA01 (ATCC 15692); assay: Flow cytometric antibody recruitment assay using an anti-Rhamnose antibody; assay type: cell-based; details: 40 μM substance; MFI (PE) over vehicle control; human anti-Rhamnose IgG polyclonal antibody 42 μg/mL; binding to bacterial surface
Procedure: Flow Cytometric Antibody Recruitment Assay Using an Anti-Rhamnose Antibody
A secondary fluorescently labelled anti-IgG antibody was used to detect the anti-Rhamnose antibody binding.
The assays were carried out in polystyrene 96-well U bottom plates (Costar) blocked with 200 μl of Casein blocking buffer for 1 hour at room temperature (Fisher 37528). Pseudomonas Aeruginosa PA01 (ATCC 15692) was grown in LB broth, Miller (Fisher BP1426-500) to late exponential phase. Subsequently, the bacteria were washed once with Hank's Balanced Salt Solution with calcium and magnesium (HBSS+/+) and then resuspended in HBSS+/+ at a bacterial density of 2×10^9 colony forming units (CFU)/mL. […] The bacteria were then washed three times with 200 μL HBSS+/+, prior to adding 50 μL of the human anti Rhamnose IgG polyclonal antibody at a final concentration of 42 μg/mL in HBSS+/+. The samples were incubated for 1 hour at room temperature shaking at 450 rpm. The bacteria were washed three times as above, prior to adding 100 μL of a PE-labeled anti-human IgG Fc secondary antibody (Biolegend 409304) at 10 μg/mL in HBSS+/+ and incubating at room temperature for 1 hour at 450 rpm. After three final washes with 200 μL HBSS+/+, the bacteria were resuspended in 200 μL HBSS+/+ and evaluated for anti-Rhamnose antibody binding on a Cytoflex flow cytometer (Beckman Coulter). 50,000 counts of bacterial particles were sampled and the median fluorescent shift was recorded in the PE-A channel. Data from all samples were analysed using Kaluza software (Beckman Coulter).
The fold shift over background was calculated by dividing the Median Fluorescent Intensity (MFI) obtained in the presence of 40 μM of the Example compounds by the MFI value obtained in the vehicle controls, i.e., the absence of Examples. The higher the fold shift over background, the more anti-Rhamnose was bound to the bacterial surface. The shift in fluorescence intensity (PE) occurs due to the binding event at each end of the molecule.

[2] = system: E. coli K1:O18ac:H7 (ATCC 700973); assay: Flow cytometric complement deposition assay with human serum; assay type: cell-based; details: MFI (APC) over vehicle, 25% pooled human serum, 37° C., 20 min; for C3b deposition (5 μM, Average fold change): 5 μM compound, C3b/iC3b on bacterial surface
Procedure: Flow Cytometric Complement Deposition Assay with Human Serum
The assays were carried out in polystyrene 96-well U bottom plates (Costar). E. coli K1:O18ac:H7 (American Type Culture Collection, ATCC 700973) was grown in LB broth, Miller (Fisher BP1426-500) to late exponential phase. Subsequently, the bacteria were washed in Hank's Balanced Salt Solution with calcium and magnesium (HBSS+/+) and then resuspended in assay buffer, i.e., PBS with 1% bovine serum albumin (BSA, Sigma A2153) at a concentration of 2×10^9 CFU/mL. […] Subsequently, 150 μL ice-cold HBSS+/+ was added, the bacteria were pelleted and then washed once with 200 μL HBSS+/+, prior to adding 100 μL of pooled human serum (Innovate Research IPLA-CSER) as anti-Rhamnose antibody and complement source in PBS, 1% BSA to a final serum concentration of 25%. Bacteria were incubated at 37° C. for 20 min to allow for anti-Rhamnose binding to the compounds and complement deposition. 100 μL ice-cold HBSS+/+ was added to each well to stop the reaction. The bacteria were pelleted by centrifugation at 4° C. and the supernatants discarded. The bacteria were then washed two times with 200 μL refrigerated HBSS+/+, prior to adding 100 μL of APC-labelled anti-human C3b/iC3b antibody (Biolegend 846106; clone 3E7/C3b) at 1:25 dilution in PBS, 1% BSA and incubated at 4° C. for 45 min. After three final washes with 200 μL HBSS+/+, the bacteria were resuspended in HBSS+/+ and their fluorescence profile as an indicator for complement deposition evaluated on a Cytoflex flow cytometer (Beckman Coulter). The median fluorescent intensity (MFI) was recorded in the APC channels. Data from all samples were analysed using Kaluza software (Beckman Coulter).
The fold shift over background was calculated by dividing the MFI obtained in the presence of the Examples (5 μM) by the MFI obtained in the absence of Examples, i.e., in the presence of vehicle. The shift in fluorescence intensity (APC) occurred due to detection of covalently bound complement components C3b/iC3b to the surface of the bacteria.

Structure (SMILES)	IgG Recruitment (40 μM, Average fold change) [1]	C3b deposition (Average fold change) ([2]; 20 μM PmxB)	C3b deposition (5 μM, Average fold change) [2]
CC[C@H](C)CCCCC(=O)N[C@@H](CCN)C(=O)N[C@H](C(=O)N[C@@H](CCN)C(=O)N[C@H]1CCNC(=O)[C@H]([C@@H](C)O)NC(=O)[C@H](CCN)NC(=O)[C@H](CCN)NC(=O)[C@H](CC(C)C)NC(=O)[C@@H](Cc2ccccc2)NC(=O)[C@H](CCN)NC1=O)[C@@H](C)O [Polymyxin B, reference compound] (X2-[Dab]T[Dab][Dab][Dab][dF]L[Dab][Dab]T; lactam 4-C)	1.58 fold change	24.535 fold change	–
CCCCCCCC[C@H](NC(=O)CCCCCNC(=O)CCCCCNC(=O)c1cccc(-c2ccc(OCC(=O)NCCNC(=O)CCCOC3O[C@@H](C)C(O)C(O)[C@@H]3O)cc2)c1)C(=O)N[C@@H](CCN)C(=O)N[C@H](C(=O)N[C@@H](CCN)C(=O)N[C@H]1CCNC(=O)[C@H]([C@@H](C)O)NC(=O)[C@H](CCN)NC(=O)[C@H](CCN)NC(=O)[C@H](CC(C)C)NC(=O)[C@@H](Cc2ccccc2)NC(=O)[C@H](CCN)NC1=O)[C@@H](C)O (some centres unmarked) [Example 1] ({X3-Ahx-Ahx}-[Gly(octyl)][Dab]T[Dab][Dab][Dab][dF]L[Dab][Dab]T; lactam 5-C)	77.7 fold change	–	109.8 fold change
CCCCCCCC[C@H](NC(=O)CCCCCNC(=O)CCCCCNC(=O)c1cc(OCC(=O)NCCNC(=O)CCCOC2O[C@@H](C)C(O)C(O)[C@@H]2O)cc(-c2cc(OCC(=O)NCCNC(=O)CCCOC3O[C@@H](C)C(O)C(O)[C@@H]3O)cc(OCC(=O)NCCNC(=O)CCCOC3O[C@@H](C)C(O)C(O)[C@@H]3O)c2)c1)C(=O)N[C@@H](CCN)C(=O)N[C@H](C(=O)N[C@@H](CCN)C(=O)N[C@H]1CCNC(=O)[C@H]([C@@H](C)O)NC(=O)[C@H](CCN)NC(=O)[C@H](CCN)NC(=O)[C@H](CC(C)C)NC(=O)[C@@H](Cc2ccccc2)NC(=O)[C@H](CCN)NC1=O)[C@@H](C)O (some centres unmarked) [Example 2] ({X1-Ahx-Ahx}-[Gly(octyl)][Dab]T[Dab][Dab][Dab][dF]L[Dab][Dab]T; lactam 5-C)	3.4 fold change	–	148.1 fold change
CCCCCCCCC(=O)N[C@@H](CCNC(=O)CCCCCNC(=O)CCCCCNC(=O)c1cccc(-c2ccc(OCC(=O)NCCNC(=O)CCCOC3O[C@@H](C)C(O)C(O)[C@@H]3O)cc2)c1)C(=O)N[C@H](C(=O)N[C@@H](CCN)C(=O)N[C@H]1CCNC(=O)[C@H]([C@@H](C)O)NC(=O)[C@H](CCN)NC(=O)[C@H](CCN)NC(=O)[C@H](CC(C)C)NC(=O)[C@@H](Cc2ccccc2)NC(=O)[C@H](CCN)NC1=O)[C@@H](C)O (stereo partly drawn) [Example 5] (Nonanoyl-[Dab]([Ahx-Ahx-X3])T[Dab][Dab][Dab][dF]L[Dab][Dab]T; lactam 4-C)	8.45 fold change	–	20.5 fold change
